# Experimental data from patent publication US8808879B2, “Phototherapy devices and methods comprising substituted carbazole compounds” (Nitto Denko Corporation, priority 2010, dated 2014).
# What was measured:
# [1] = system: age-related macular degeneration; experiment: Verteporphin photodynamic therapy of age-related macular degeneration with red OLED; format: in vivo, person; conditions: about 6 mg/m^2 intravenously, retina illuminated with red OLED about 15 minutes after start of infusion
# [2] = system: presumed ocular histoplasmosis; design: species or system person; conditions: in vivo, iv
# pathological myopia = experiment: Verteporphin photodynamic therapy of pathological myopia with red OLED; format: in vivo, person; conditions: about 6 mg/m^2 intravenously, retina illuminated with red OLED about 15 minutes after start of infusion
# actinic keratoses = experiment: Photodynamic treatment of actinic keratoses lesions with topical photosensitiser pro-drug and red OLED; conditions: 20% topical solution, illuminated with red OLED about 14-18 hours after application
# [3] = system: CHO-K1 (Chinese Hamster Ovarian Cancer, ATCC, CRL-2243) cell line; experiment: Ex-vivo photodynamic efficacy study of ALA with red OLED light (microscopy, PpIX fluorescence, MTT cell viability)
compound,measurement,setting,value
C=Cc1c(C)c2cc3nc(cc4[nH]c(cc5nc(cc1[nH]2)C(C)=C5CCC(=O)O)c(CCC(=O)OC)c4C)[C@@]1(C)C3=CC=C(C(=O)OC)[C@H]1C(=O)OC [Verteporphin],patient's vision after treatment,[1],stabilized
same,patient's vision after treatment,[2],stabilized
same,patient's vision after treatment,pathological myopia,stabilized
Cl.NCC(=O)CCC(=O)O [5-Aminolevulinic acid HCl],number or severity of the lesions after the treatment,actinic keratoses,reduced
"NCC(=O)CCC(=O)O [ALA, 5-aminolevulinic acid]",cytotoxicity at 1000 µM,"[3]; Cricetulus griseus, CHO-K1, light or radiation study, read-out: cell destroyed compared with reference (MTT cell viability)",~90%
same,cell morphology under optical microscope after light irradiation,"[3]; after 25 J/cm^2 red light irradiation, leafy type cells transform to droplet type (FIG. 9)",significant and irreversible cell death
same,concentration of ALA required,[3]; at the light dose of 27 J/cm^2,at least 1 mM
